According to patent publication US4277492A, “Novel 4-bis((Phenylmethyl)amino)-benzenesulfonic acids possessing antiviral activity” (priority 1980, dated 1981):
In brackets after ≈: the same amount, converted by molar mass.

Tests used:
[1] = Cytotoxicity in tissue culture (monolayered HeLa cells); assay type: cell-based; conditions: human, observed at 48 and 72 hours post-treatment, read-out: Cytotoxicity (concentration of compound found to be toxic to the cell)
Experimental: (§1) Monolayered HeLa cells in 16 millimeter (mm) tissue culture dishes were treated with 1 ml of culture medium (Eagles medium supplemented with fetal calf serum) containing compound at 100, 50, 25, 12.5, 6.25 or 0 μg/ml. Culture mediums such as those described herein are more fully described in standard tests, as for example, Kuchler's Biochemical Methods in Cell Culture and Virology, Dowden, Hutchinson and Ross, Inc., Stroudsberg, PA (1977). Immediately following treatment, cells were challenged with 0.05 ml of rhinovirus type 1A (RV-1A), rhinovirus type 2 (RV-2) or coxsackie A21 virus (Cox A21) in culture medium. Cell controls received no virus.
*Cytotoxicity figures represent the concentration of compound (μg/ml)
found to be toxic to the cell.

[2] = test system: rhinovirus type 1A (RV-1A); assay: Tissue culture antiviral testing, RV-1A (viral cytopathic effect in HeLa cells); assay type: cell-based; conditions: Enterovirus, 48 and 72 hours post-treatment, read-out: Lowest concentration of compound necessary to cause a 50 percent reduction in cytopathic effect, RV-1A
Experimental: as §1
(§2) **Lowest concentration of compound (μg/ml) necessary to cause a 50
(§3) percent reduction in cytopathic effect.

rhinovirus type 2 (RV-2) = assay: Tissue culture antiviral testing, RV-2 (viral cytopathic effect in HeLa cells); assay type: cell-based; conditions: Enterovirus, 48 and 72 hours post-treatment, read-out: Lowest concentration of compound necessary to cause a 50 percent reduction in cytopathic effect, RV-2
Experimental: as §1, §2, §3

[3] = test system: coxsackie A21 virus (Cox A21); assay: Tissue culture antiviral testing, Cox A21 (viral cytopathic effect in HeLa cells); assay type: cell-based; conditions: 48 and 72 hours post-treatment, read-out: Lowest concentration of compound necessary to cause a 50 percent reduction in cytopathic effect, Cox A21
Experimental: as §1, §2, §3

Cox A21 virus = assay: Animal testing, mice challenged intraperitoneally with a normally lethal dose of Cox A21 virus; assay type: in vivo, Swiss male mice; conditions: 600 mg/kg PO; at the 95 percent confidence level
Experimental: The subject compounds were also tested in animals as follows:
Swiss male mice, 10-12 g in weight, were challenged intraperitoneally (IP) with 0.2 ml of a normally lethal dose, i.e., a virus dose sufficient to cause .congruent.80-100 percent mortality in infected animals within 10 days of challenge, of Cox A21 virus in phosphate buffered saline containing 1 percent heat inactivated fetal calf serum. Three hours later, mice were treated orally (PO) with 0.2 ml of compound suspended in 0.5 percent hydroxypropyl methylcellulose (Methocel) or with 0.2 ml of Methocel alone. The test compounds were administered at a 30 milligram/milliliter (mg/ml) concentration, which is a 600 milligram/kilogram (mg/kg) dosage. Mice were counted daily for 7-10 days post-challenge and deaths recorded. A modified Mantel-Haenzel combined chi-square (X^2) procedure was used to determine significant difference between virus control and treated groups. Chi-square values greater than 3.84 are considered significant (95 percent confidence level) in this test.

| Compound | MCC [1] [µg/mL] | EC50 [2] [µg/mL] | EC50 (rhinovirus type 2 (RV-2)) [µg/mL] | EC50 [3] [µg/mL] | Antiviral activity in testing with mice (in words) (Cox A21 virus) |
| --- | --- | --- | --- | --- | --- |
| O=[N+]([O-])c1cccc(CN(Cc2cccc([N+](=O)[O-])c2)c2ccc(S(=O)(=O)O)cc2)c1 [Example 1, 4-(Bis((3-nitrophenyl)methyl)amino)benzenesulfonic Acid] | 25 | 6.25 (≈ 14.1 µM) | > 100 | < 6.25 | – |
| O=S(=O)(O)c1ccc(N(Cc2c(Cl)cccc2Cl)Cc2c(Cl)cccc2Cl)cc1 [Example 2, 4-(Bis((2,6-dichlorophenyl)methyl)amino)benzenesulfonic Acid] | 12.5 | 6.25 (≈ 12.7 µM) | 12.5 (≈ 25.4 µM) | < 6.25 | – |
| O=S(=O)(O)c1ccc(N(Cc2ccc(F)cc2)Cc2ccc(F)cc2)cc1 [Example 3, 4-(Bis((4-fluorophenyl)methyl)amino)benzenesulfonic Acid] | 100 | 12.5 (≈ 32.1 µM) | > 100 | < 6.25 | active antiviral compounds in testing with mice |
| O=S(=O)(O)c1ccc(N(Cc2ccc(F)cc2)Cc2ccc(Cl)cc2)cc1 [Example 4, 4-(((4-Chlorophenyl)methyl)((4-fluorophenyl)-methyl)amino)benzenesulfonic Acid] | 50 | 50 (≈ 123 µM) | > 100 | < 6.25 | active antiviral compounds in testing with mice |
| O=S(=O)(O)c1ccc(N(Cc2ccc(Cl)cc2)Cc2ccc(Cl)cc2)cc1 [Example 5, 4-(Bis((4-chlorophenyl)methyl)amino)benzenesulfonic Acid] | 25 | 12.5 (≈ 29.6 µM) | > 100 | < 6.25 | active antiviral compounds in testing with mice |
| O=S(=O)(O)c1ccc(N(Cc2cccc(Cl)c2)Cc2cccc(Cl)c2)cc1 [Example 6, 4-(Bis((3-chlorophenyl)methyl)amino)benzenesulfonic Acid] | 100 | > 50 | > 100 | < 6.25 | active antiviral compounds in testing with mice |
| O=S(=O)(O)c1ccc(N(Cc2ccc(Br)cc2)Cc2ccc(Br)cc2)cc1 [Example 7, 4-(Bis((4-bromophenyl)methyl)amino)benzenesulfonic Acid] | 25 | 12.5 (≈ 24.5 µM) | > 100 | < 6.25 | active antiviral compounds in testing with mice |
| O=S(=O)(O)c1ccc(N(Cc2ccccc2F)Cc2ccccc2F)cc1 [Example 8, 4-(Bis((2-fluorophenyl)methyl)amino)benzenesulfonic Acid] | 100 | > 100 | > 100 | < 6.25 | – |
| O=S(=O)(O)c1ccc(N(Cc2cccc(F)c2)Cc2cccc(F)c2)cc1 [Example 9, 4-(Bis((3-fluorophenyl)methyl)amino)benzenesulfonic Acid] | 100 | 50 (≈ 128 µM) | > 100 | 12.5 (≈ 32.1 µM) | active antiviral compounds in testing with mice |
